Experiments:
Type in all cases: in vivo
[1] = tested on: green peach aphid (Myzus persicae); assay: Myzus persicae test (MYZUPE), ammonium salts in combination with penetration enhancers (Example C); settings: for Kill rate/% after 7 days, +AS (1000 ppm) / Kill rate/% after 7 days, +RME (1000 ppm) / Kill rate/% after 7 days, +RME + AS (each 1000 ppm) / Kill rate/% after 7 days, a.i.: Table C2, emulsifier 1 part; for Kill rate/% after 7 days, +AS (1000 ppm): active substance 60 g/ha + ammonium sulfate 1000 ppm; for Kill rate/% after 7 days, +RME (1000 ppm): active substance 60 g/ha + rape oil methyl ester 1000 ppm; for Kill rate/% after 7 days, +RME + AS (each 1000 ppm): active substance 60 g/ha + rape oil methyl ester and ammonium sulfate; for Kill rate/% after 7 days, a.i.: active substance 60 g/ha; for Kill rate/% after 7 days, a.i. / Kill rate/% after 6 days, a.i.: no additive; for Kill rate/% after 6 days, +AS (1000 ppm) / Kill rate/% after 6 days, +RME (1000 ppm) / Kill rate/% after 6 days, +RME + AS (each 1000 ppm) / Kill rate/% after 6 days, a.i.: Table C1
Procedure: (§1) Myzus persicae—Test (MYZUPE)
(§2) For the preparation of a suitable active substance preparation, 1 part by weight of active substance is mixed with the stated quantities of solvent and emulsifier and the concentrate is diluted to the desired concentration with emulsifier-containing water. When addition of ammonium salts, penetration enhancers or ammonium salts and penetration enhancers is necessary, these are in each case pipetted into the finished preparation solution in a concentration of 1000 ppm after dilution.
Paprika plants (Capsicum annuum) which are severely infested with the green peach aphid (Myzus persicae) are treated by spraying with the active substance preparation in the desired concentration.
(§3) After the desired time, the kill rate in % is determined. Here 100% means that all the animals were killed; 0% means that no animals were killed.

[2] = tested on: cotton aphid (Aphis gossypii); assay: Aphis gossypii test (APHIGO), ammonium salts in combination with penetration enhancers (Example D); settings: for Kill rate/% after 7 days, +AS (1000 ppm) / Kill rate/% after 7 days, +RME (1000 ppm) / Kill rate/% after 7 days, +RME + AS (each 1000 ppm) / Kill rate/% after 7 days, a.i.: Table D2, emulsifier 1 part; for Kill rate/% after 7 days, +AS (1000 ppm): active substance 2.4 g/ha + ammonium sulfate 1000 ppm; for Kill rate/% after 7 days, +RME (1000 ppm): active substance 2.4 g/ha + rape oil methyl ester 1000 ppm; for Kill rate/% after 7 days, +RME + AS (each 1000 ppm): active substance 2.4 g/ha + rape oil methyl ester and ammonium sulfate; for Kill rate/% after 7 days, a.i.: active substance 2.4 g/ha; for Kill rate/% after 7 days, a.i. / Kill rate/% after 6 days, a.i.: no additive; for Kill rate/% after 6 days, +AS (1000 ppm) / Kill rate/% after 6 days, +RME (1000 ppm) / Kill rate/% after 6 days, +RME + AS (each 1000 ppm) / Kill rate/% after 6 days, a.i.: Table D1
Procedure: (§4) Aphis gossypii-Test (APHIGO)
as §2
(§5) Cotton leaves (Gossypium hirsutum) which are severely infested with the cotton aphid (Aphis gossypii) are sprayed with an active substance preparation with the desired concentration.
(§6) After the desired time, the kill rate in % is determined. Here 100% means that all the aphids were killed; 0% means that no aphids were killed.

[3] = tested on: green peach aphid (Myzus persicae); assay: Myzus persicae test (MYZUPE), activity increase due to ammonium salts (Example A); settings: sprayed paprika plants; for Kill rate/% after 6 days, a.i.: no additive
Procedure: as §1
as §2, with “ammonium” for “ammonium salts, penetration enhancers or ammonium”, “salts” for “salts and penetration enhancers”
Paprika plants (Capsicum annuum) which are severely infested by the green peach aphid (Myzus persicae) are treated by spraying with the active substance preparation in the desired concentration.
as §3

[4] = tested on: common spider mite (Tetranychus urticae); assay: Tetranychus test (OP-resistant), ammonium salts in combination with penetration enhancers (Example F); settings: for Kill rate/% after 6 days, a.i.: no additive
Procedure: (§7) Tetranychus-Test (OP-Resistant)
as §2
(§8) Bean plants (Phaseolus vulgaris) which are severely infested by all stages of the common spider mite (Tetranychus urticae) are treated by spraying with the active substance preparation in the desired concentration.
(§9) After the desired time, the kill rate in % is determined. here 100% means that all the spider mites were killed; 0% means that no spider mites were killed.

[5] = tested on: cotton aphid (Aphis gossypii); assay: Aphis gossypii test (APHIGO), activity increase due to ammonium salts (Example B); settings: sprayed cotton leaves; for Kill rate/% after 6 days, a.i.: no additive
Procedure: as §4
as §2, with “ammonium” for “ammonium salts, penetration enhancers or ammonium”, “salts” for “salts and penetration enhancers”
as §5, §6

[6] = tested on: common spider mite (Tetranychus urticae); assay: Tetranychus test (OP-resistant), activity increase due to ammonium salts (Example E); settings: sprayed bean plants; for Kill rate/% after 6 days, +AS (1000 ppm): active substance 20 ppm + ammonium sulfate 1000 ppm; for Kill rate/% after 6 days, a.i.: active substance 20 ppm, no additive
Procedure: as §7
as §2, with “ammonium” for “ammonium salts, penetration enhancers or ammonium”, “salts” for “salts and penetration enhancers”
as §8, §9

[7] = active substance 20 ppm + ammonium sulfate 1000 ppm
[8] = active substance 20 ppm + rape oil methyl ester 1000 ppm
[9] = active substance 20 ppm + rape oil methyl ester and ammonium sulfate
[10] = active substance 0.8 ppm + ammonium sulfate 1000 ppm
[11] = active substance 0.8 ppm + rape oil methyl ester 1000 ppm
[12] = active substance 0.8 ppm + rape oil methyl ester and ammonium sulfate
[13] = active substance 4 ppm + ammonium sulfate 1000 ppm
[14] = active substance 4 ppm + rape oil methyl ester 1000 ppm
[15] = active substance 4 ppm + rape oil methyl ester and ammonium sulfate

## COc1cccc(S(=O)(=O)NCc2ccccc2)c1C#N [Example 40]
[1]
  Kill rate/% after 7 days, +AS (1000 ppm): 0%
  Kill rate/% after 7 days, +RME (1000 ppm): 40%
  Kill rate/% after 7 days, +RME + AS (each 1000 ppm): 50%
  Kill rate/% after 7 days, a.i.: 0%

## COc1cccc(S(=O)(=O)NC(C)C)c1C#N [Example 41]
[2]
  Kill rate/% after 7 days, +AS (1000 ppm): 80%
  Kill rate/% after 7 days, +RME (1000 ppm): 10%
  Kill rate/% after 7 days, +RME + AS (each 1000 ppm): 93%
  Kill rate/% after 7 days, a.i.: 50%

## C#CCN1C(=N)c2c(OC)cccc2S1(=O)=O [Example 42-A]
[1]; [7]
  Kill rate/% after 6 days, +AS (1000 ppm): 45%
[1]; [8]
  Kill rate/% after 6 days, +RME (1000 ppm): 90%
[1]; [9]
  Kill rate/% after 6 days, +RME + AS (each 1000 ppm): 98%
[1]; active substance 20 ppm
  Kill rate/% after 6 days, a.i.: 0%
[3]; [7]
  Kill rate/% after 6 days, +AS (1000 ppm): 45%
[3]; active substance 20 ppm
  Kill rate/% after 6 days, a.i.: 0%
[4]; [10]
  Kill rate/% after 6 days, +AS (1000 ppm): 30%
[4]; [11]
  Kill rate/% after 6 days, +RME (1000 ppm): 45%
[4]; [12]
  Kill rate/% after 6 days, +RME + AS (each 1000 ppm): 80%
[4]; active substance 0.8 ppm
  Kill rate/% after 6 days, a.i.: 50%
[4]; [13]
  Kill rate/% after 6 days, +AS (1000 ppm): 50%
[4]; [14]
  Kill rate/% after 6 days, +RME (1000 ppm): 75%
[4]; [15]
  Kill rate/% after 6 days, +RME + AS (each 1000 ppm): 95%
[4]; active substance 4 ppm
  Kill rate/% after 6 days, a.i.: 70%
[5]; [13]
  Kill rate/% after 6 days, +AS (1000 ppm): 55%
[5]; active substance 4 ppm
  Kill rate/% after 6 days, a.i.: 15%
[5]; [7]
  Kill rate/% after 6 days, +AS (1000 ppm): 98%
[5]; active substance 20 ppm
  Kill rate/% after 6 days, a.i.: 30%

## C#CCNS(=O)(=O)c1cccc(OC)c1C#N [Example 42]
[1]; [7]
  Kill rate/% after 6 days, +AS (1000 ppm): 20%
[1]; [8]
  Kill rate/% after 6 days, +RME (1000 ppm): 25%
[1]; [9]
  Kill rate/% after 6 days, +RME + AS (each 1000 ppm): 70%
[1]; active substance 20 ppm
  Kill rate/% after 6 days, a.i.: 5%
[1]; active substance 100 ppm + ammonium sulfate 1000 ppm
  Kill rate/% after 6 days, +AS (1000 ppm): 80%
[1]; active substance 100 ppm + rape oil methyl ester 1000 ppm
  Kill rate/% after 6 days, +RME (1000 ppm): 99%
[1]; active substance 100 ppm + rape oil methyl ester and ammonium sulfate
  Kill rate/% after 6 days, +RME + AS (each 1000 ppm): 100%
[1]; active substance 100 ppm
  Kill rate/% after 6 days, a.i.: 75%
[3]; [7]
  Kill rate/% after 6 days, +AS (1000 ppm): 20%
[3]; active substance 20 ppm
  Kill rate/% after 6 days, a.i.: 5%

## C=CCNS(=O)(=O)c1cccc(OC)c1C#N [Example 44]
[6]
  Kill rate/% after 6 days, +AS (1000 ppm): 70%
  Kill rate/% after 6 days, a.i.: 40%
[2]; [13]
  Kill rate/% after 6 days, +AS (1000 ppm): 25%
[2]; [14]
  Kill rate/% after 6 days, +RME (1000 ppm): 45%
[2]; [15]
  Kill rate/% after 6 days, +RME + AS (each 1000 ppm): 55%
[2]; active substance 4 ppm
  Kill rate/% after 6 days, a.i.: 5%
[1]; [13]
  Kill rate/% after 6 days, +AS (1000 ppm): 15%
[1]; [14]
  Kill rate/% after 6 days, +RME (1000 ppm): 20%
[1]; [15]
  Kill rate/% after 6 days, +RME + AS (each 1000 ppm): 30%
[1]; active substance 4 ppm
  Kill rate/% after 6 days, a.i.: 10%
[1]; [7]
  Kill rate/% after 6 days, +AS (1000 ppm): 70%
[1]; [8]
  Kill rate/% after 6 days, +RME (1000 ppm): 85%
[1]; [9]
  Kill rate/% after 6 days, +RME + AS (each 1000 ppm): 98%
[1]; active substance 20 ppm
  Kill rate/% after 6 days, a.i.: 85%
[5]; [13]
  Kill rate/% after 6 days, +AS (1000 ppm): 25%
[5]; active substance 4 ppm
  Kill rate/% after 6 days, a.i.: 5%

## COc1cccc2c1C(N)=NS2(=O)=O [Example 45-B]
[3]; [13]
  Kill rate/% after 6 days, +AS (1000 ppm): 60%
[3]; active substance 4 ppm
  Kill rate/% after 6 days, a.i.: 35%

## COc1cccc(S(=O)(=O)NC2CC2)c1C#N [Example 83]
[2]
  Kill rate/% after 7 days, +AS (1000 ppm): 55%
  Kill rate/% after 7 days, +RME (1000 ppm): 30%
  Kill rate/% after 7 days, +RME + AS (each 1000 ppm): 85%
  Kill rate/% after 7 days, a.i.: 10%
[1]
  Kill rate/% after 7 days, +AS (1000 ppm): 0%
  Kill rate/% after 7 days, +RME (1000 ppm): 10%
  Kill rate/% after 7 days, +RME + AS (each 1000 ppm): 75%
  Kill rate/% after 7 days, a.i.: 0%

## COc1cccc(S(=O)(=O)N(C)C)c1C#N [Example 215]
[1]
  Kill rate/% after 7 days, +AS (1000 ppm): 20%
  Kill rate/% after 7 days, +RME (1000 ppm): 40%
  Kill rate/% after 7 days, +RME + AS (each 1000 ppm): 75%
  Kill rate/% after 7 days, a.i.: 0%

## C=CCN(C)S(=O)(=O)c1cccc(OC)c1C#N [Example 225]
[6]
  Kill rate/% after 6 days, +AS (1000 ppm): 80%
  Kill rate/% after 6 days, a.i.: 20%
[1]; [13]
  Kill rate/% after 6 days, +AS (1000 ppm): 0%
[1]; [14]
  Kill rate/% after 6 days, +RME (1000 ppm): 5%
[1]; [15]
  Kill rate/% after 6 days, +RME + AS (each 1000 ppm): 35%
[1]; active substance 4 ppm
  Kill rate/% after 6 days, a.i.: 0%
[5]; [7]
  Kill rate/% after 6 days, +AS (1000 ppm): 75%
[5]; active substance 20 ppm
  Kill rate/% after 6 days, a.i.: 35%

## N#Cc1ccccc1S(N)(=O)=O [Example 226]
[2]; [10]
  Kill rate/% after 6 days, +AS (1000 ppm): 0%
[2]; [11]
  Kill rate/% after 6 days, +RME (1000 ppm): 20%
[2]; [12]
  Kill rate/% after 6 days, +RME + AS (each 1000 ppm): 35%
[2]; active substance 0.8 ppm
  Kill rate/% after 6 days, a.i.: 0%
[2]; [13]
  Kill rate/% after 6 days, +AS (1000 ppm): 20%
[2]; [14]
  Kill rate/% after 6 days, +RME (1000 ppm): 35%
[2]; [15]
  Kill rate/% after 6 days, +RME + AS (each 1000 ppm): 55%
[2]; active substance 4 ppm
  Kill rate/% after 6 days, a.i.: 20%
[1]; [7]
  Kill rate/% after 6 days, +AS (1000 ppm): 10%
[1]; [8]
  Kill rate/% after 6 days, +RME (1000 ppm): 25%
[1]; [9]
  Kill rate/% after 6 days, +RME + AS (each 1000 ppm): 50%
[1]; active substance 20 ppm
  Kill rate/% after 6 days, a.i.: 10%
[4]; [7]
  Kill rate/% after 6 days, +AS (1000 ppm): 70%
[4]; [8]
  Kill rate/% after 6 days, +RME (1000 ppm): 60%
[4]; [9]
  Kill rate/% after 6 days, +RME + AS (each 1000 ppm): 90%
[4]; active substance 20 ppm
  Kill rate/% after 6 days, a.i.: 50%
